In PubChem BioAssay (NCI):
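Tested at 5 concentrations; 48 h exposure; 96-well plates; endpoints linearly interpolated, else capped at highest concentration. TGI: concentration producing complete growth inhibition.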

Experiments:
Test in all cases: inhibition of tumour cell growth, NCI panel, 48 h
[1] = tested on: 786-0 renal
[2] = tested on: A498 renal
[3] = tested on: ACHN renal
[4] = tested on: CAKI-1 renal
[5] = tested on: CCRF-CEM leukemia
[6] = tested on: COLO 205 colon
[7] = tested on: DLD-1 colon
[8] = tested on: DMS 114 small cell lung
[9] = tested on: DMS 273 small cell lung
[10] = tested on: HCC-2998 colon
[11] = tested on: HCT-116 colon
[12] = tested on: HL-60(TB) leukemia
[13] = tested on: HOP-62 NSCLC
[14] = tested on: HOP-92 NSCLC
[15] = tested on: IGROV1 ovarian
[16] = tested on: K-562 leukemia
[17] = tested on: LXFL 529 NSCLC
[18] = tested on: M14 melanoma
[19] = tested on: M19-MEL melanoma
[20] = tested on: MALME-3M melanoma
[21] = tested on: MOLT-4 leukemia
[22] = tested on: NCI-H226 lung
[23] = tested on: NCI-H23 lung
[24] = tested on: NCI-H522 lung
[25] = tested on: OVCAR-4 ovarian
[26] = tested on: RPMI-8226 leukemia
[27] = tested on: SF-268 CNS
[28] = tested on: SF-539 CNS
[29] = tested on: SK-MEL-2 melanoma
[30] = tested on: SK-MEL-28 melanoma
[31] = tested on: SK-OV-3 ovarian
[32] = tested on: SN12C renal
[33] = tested on: SNB-75 CNS
[34] = tested on: SNB-78 CNS
[35] = tested on: SR leukemia
[36] = tested on: UACC-62 melanoma
[37] = tested on: UO-31 renal
[38] = tested on: XF 498 CNS
[39] = tested on: A549 NSCLC
[40] = tested on: EKVX NSCLC
[41] = tested on: HCT-15 colon
[42] = tested on: HOP-18 NSCLC
[43] = tested on: HT29 colon
[44] = tested on: KM12 colon
[45] = tested on: LOX IMVI melanoma
[46] = tested on: OVCAR-3 ovarian
[47] = tested on: OVCAR-5 ovarian
[48] = tested on: OVCAR-8 ovarian
[49] = tested on: RXF 393 renal
[50] = tested on: SF-295 CNS
[51] = tested on: SK-MEL-5 melanoma
[52] = tested on: SNB-19 CNS
[53] = tested on: SW-620 colon
[54] = tested on: TK-10 renal
[55] = tested on: U251 CNS
[56] = tested on: UACC-257 melanoma

SMILES: COc1ccc(/C=N/Nc2nc(C)c3c(n2)Nc2ccccc2NC3=O)cc1
- TGI [1]: > 100 µM
- TGI [2]: > 100 µM
- TGI [3]: > 100 µM
- TGI [4]: > 100 µM
- TGI [5]: > 100 µM
- TGI [6]: > 100 µM
- TGI [7]: > 100 µM
- TGI [8]: > 100 µM
- TGI [9]: > 100 µM
- TGI [10]: > 100 µM
- TGI [11]: > 100 µM
- TGI [12]: > 100 µM
- TGI [13]: > 100 µM
- TGI [14]: > 100 µM
- TGI [15]: > 100 µM
- TGI [16]: > 100 µM
- TGI [17]: > 100 µM
- TGI [18]: > 100 µM
- TGI [19]: > 100 µM
- TGI [20]: > 100 µM
- TGI [21]: > 100 µM
- TGI [22]: > 100 µM
- TGI [23]: > 100 µM
- TGI [24]: > 100 µM
- TGI [25]: > 100 µM
- TGI [26]: > 100 µM
- TGI [27]: > 100 µM
- TGI [28]: > 100 µM
- TGI [29]: > 100 µM
- TGI [30]: > 100 µM
- TGI [31]: > 100 µM
- TGI [32]: > 100 µM
- TGI [33]: > 100 µM
- TGI [34]: > 100 µM
- TGI [35]: > 100 µM
- TGI [36]: > 100 µM
- TGI [37]: > 100 µM
- TGI [38]: > 100 µM

SMILES: Nc1c(-c2nc3ccccc3[nH]2)sc(=S)n1-c1ccc(Cl)cc1
- TGI [1]: 36.7 µM
- TGI [2]: 88.2 µM
- TGI [39]: 51.1 µM
- TGI [3]: 43 µM
- TGI [4]: 54.6 µM
- TGI [5]: > 100 µM
- TGI [6]: > 100 µM
- TGI [7]: > 100 µM
- TGI [8]: 42 µM
- TGI [9]: 39.8 µM
- TGI [40]: 67.4 µM
- TGI [10]: 48.8 µM
- TGI [41]: 61.8 µM
- TGI [12]: > 100 µM
- TGI [42]: 38.6 µM
- TGI [13]: 47.3 µM
- TGI [43]: 42.6 µM
- TGI [15]: 73.2 µM
- TGI [16]: > 100 µM
- TGI [44]: 78.3 µM
- TGI [45]: 50.5 µM
- TGI [18]: 82.7 µM
- TGI [19]: 84.2 µM
- TGI [20]: > 100 µM
- TGI [21]: > 100 µM
- TGI [22]: 52.2 µM
- TGI [23]: 81.8 µM
- TGI [24]: 58.1 µM
- TGI [46]: 36.4 µM
- TGI [25]: 40.4 µM
- TGI [47]: > 100 µM
- TGI [48]: 54.5 µM
- TGI [26]: 90.2 µM
- TGI [49]: 41.3 µM
- TGI [27]: 54.9 µM
- TGI [50]: 43.6 µM
- TGI [28]: 37.2 µM
- TGI [29]: 63.8 µM
- TGI [30]: > 100 µM
- TGI [51]: 67.6 µM
- TGI [31]: 56.9 µM
- TGI [32]: 50.1 µM
- TGI [52]: 57.4 µM
- TGI [33]: 47.6 µM
- TGI [34]: 66.3 µM
- TGI [53]: > 100 µM
- TGI [54]: 56.1 µM
- TGI [55]: 53.9 µM
- TGI [56]: 65.6 µM
- TGI [36]: 48.4 µM
- TGI [37]: 55.7 µM
- TGI [38]: 52.4 µM
